Legend:
Assay type in all cases: cell-based, mouse
BMDMs = assay: Cytokine expression by bone marrow-derived macrophages (BMDMs)
Description: (§1) FIGS. 34A-34I depicts GM-CSF mediates proinflammatory cytokine expression by myeloid cells and synovial fibroblasts in arthritic mice. Synovial tissues were dissected from wild-type AIA mice and dissociated into single cell suspensions. (FIG. 34A) Flow cytometry plots depicting the fractionation into different populations based on differential expression of surface markers. (FIG. 34B) The mRNA expression of several proinflammatory cytokines in sorted CD45^+ TCRβ^+ (TCRβ^+ in short), CD45^+ TCRβ^−CD11c^−CD11b^+ (CD11b^+) and CD45^+ TCRβ^−CD11c^+ (CD11c^+) populations was measured by qPCR. The qPCR data were normalized to GAPDH. (FIG. 34C) The mRNA expression of IL-6, IL-1β and TNF-α in sorted Ly6C^hiLy6G^− and Ly6C^loLy6G^hi populations (gated on CD11b^+ cells). The qPCR data were normalized to GAPDH. (FIGS. 34D and 34E) The mRNA expression of IL-6 and IL-1β by BMDMs (FIG. 34D) and BMDCs (FIG. 34E) upon stimulation with 20 ng/ml GM-CSF for 1 h. The qPCR data were normalized to GAPDH. (FIGS. 34F and 34G) BMDMs (FIG. 34F) and BMDCs (FIG. 34G) were stimulated with GM-CSF at indicated concentrations (n=3 per group) for 18 h. The secretion of IL-6 in the culture supernatant was quantified by ELISA. (FIG. 34H) BMDMs were primed with LPS (100 μg/ml) in the presence of GM-CSF at indicated concentrations (n=3 per group) for 6 h, followed by stimulation with ATP (5 mM) for 30 min. The secretion of IL-1β in the culture supernatant was quantified by ELISA. (FIG. 34I) Cells were cultured in DMEM medium supplemented with 10% FBS for over 20 days with more than 5 passages to obtain synovial fibroblasts. Synovial fibroblasts were stimulated with GM-CSF (20 ng/ml) for 1 h and harvested for RNA extraction. The mRNA expression of IL-1β was measured by qPCR. The qPCR data were normalized to GAPDH. All data shown represent two independent experiments. *p<0.05, **p<0.01.
To test the regulatory role of GM-CSF in the expression of IL-6 and IL-1β, bone marrow-derived macrophages (BMDMs) and bone marrow-derived dendritic cells (BMDCs) were cultured, and stimulated with GM-CSF. […] To induce mature IL-1β secretion, BMDMs were primed with LPS for 6 h during which different concentrations of GM-CSF was added, followed by ATP stimulation. […] An inducible effect of GM-CSF on TNF-α expression was not observed in BMDMs, BMDCs or synovial fibroblasts (data not shown). Given the functional importance of IL-6 and IL-1β in arthritis development (Choy and Panayi, 2001), TH-cell-secreted GM-CSF may mediate synovial inflammation also via eliciting the expression of IL-6 and IL-1β from myeloid cells and synovial fibroblasts.

neutrophils = assay: Neutrophil apoptosis, Annexin V and PI co-staining; conditions: 20 ng/ml, 24 h
Method: FIGS. 33A-33C depicts GM-CSF enhances neutrophil transmigration and delay apoptosis in vitro. (FIG. 33A) Percentages of migrated neutrophils with or without GM-CSF as chemoattractant in transmigration assay at 3 h post start. (FIG. 33B) Microscopic images of CFSE-labeled neutrophils in the bottom of the lower chamber in transmigration assay. (FIG. 33C) Sorted neutrophils were cultured in vitro with or without GM-CSF (20 ng/ml) for 24 h. Neutrophils undergoing apoptosis were examined by Annexin V and propidium iodide (PI) co-staining. A representative flow cytometry of three repeats was shown. *p<0.05.
Neutrophils are recruited during inflammation, in which complex interactions between neutrophils and vascular endothelial cells direct neutrophil adhesion and transmigration from circulation to inflamed tissues (Kolaczkowska and Kubes, 2013). […] Effective neutrophil apoptosis is crucial for the resolution of inflammation. However, in synovitis, neutrophil apoptosis is delayed with a result of extended survival and persistent inflammation (Wright et al., 2014). […] To determine the critical role of neutrophils in AIA, \ neutralizing antibody (1A8) specific for Ly6G was used to deplete neutrophils in vivo. […] Thus, neutrophils accumulation mediated by TH-cell-derived GM-CSF are important for AIA development.

synovial fibroblasts = assay: Cytokine mRNA expression by synovial fibroblasts
Description: as §1, with “(FIG. 34H) BMDMs were primed with LPS (100 μg/ml) in the presence of GM-CSF at indicated concentrations (n=3 per group) for 6 h, followed by stimulation with ATP (5 mM) for 30 min.” left out, “(FIG. 34I) Cells were cultured in DMEM medium supplemented with 10% FBS for over 20 days with more than 5 passages to obtain synovial fibroblasts. Synovial fibroblasts were stimulated with GM-CSF (20 ng/ml) for 1 h and harvested for RNA extraction.” left out, “The qPCR data were normalized to GAPDH. All data shown represent two independent experiments. *p<0.05, **p<0.01.” left out

GM-CSF: granulocyte macrophage colony-stimulating factor (ImmunoTools) given intraarticularly or added to cell cultures
mRNA expression of IL-6 and IL-1β in BMDMs (BMDMs; 20 ng/ml, 1 h): quickly upregulated
secretion of IL-6 from BMDMs (BMDMs; 18 h, ELISA): markedly increased
secretion of IL-1β from BMDMs (BMDMs; LPS priming 6 h, then ATP 30 min, ELISA): significantly enhanced
TNF-α expression in BMDMs (BMDMs; data not shown): not observed
neutrophil apoptosis (neutrophils): profound efficacy in delaying neutrophil apoptosis
IL-1β mRNA expression in synovial fibroblasts (synovial fibroblasts; 20 ng/ml, 1 h): increased IL-1β mRNA expression
TNF-α expression in synovial fibroblasts (synovial fibroblasts; data not shown): not observed
